Measured values: US20090012103A1, “SUBSTITUTED HETEROCYCLIC COMPOUNDS” (priority 2007, published 2009)

Legend:
[1] = target: wild-type human cardiac sodium channel, hNav1.5 (Homo sapiens, UniProt Q14524); experiment: Late INa screening assay (late sodium current, PatchXpress whole cell patch clamp); assay type: cell-based; settings: compound at 10 μM; for inhibition at 10 µM: read-out: Late INa % blk
[2] = target: hERG potassium channel (Homo sapiens, UniProt Q12809); experiment: hERG screening assay (PatchXpress patch clamp, CHO cell line)
Sequence of hERG potassium channel (Q12809 whole entry): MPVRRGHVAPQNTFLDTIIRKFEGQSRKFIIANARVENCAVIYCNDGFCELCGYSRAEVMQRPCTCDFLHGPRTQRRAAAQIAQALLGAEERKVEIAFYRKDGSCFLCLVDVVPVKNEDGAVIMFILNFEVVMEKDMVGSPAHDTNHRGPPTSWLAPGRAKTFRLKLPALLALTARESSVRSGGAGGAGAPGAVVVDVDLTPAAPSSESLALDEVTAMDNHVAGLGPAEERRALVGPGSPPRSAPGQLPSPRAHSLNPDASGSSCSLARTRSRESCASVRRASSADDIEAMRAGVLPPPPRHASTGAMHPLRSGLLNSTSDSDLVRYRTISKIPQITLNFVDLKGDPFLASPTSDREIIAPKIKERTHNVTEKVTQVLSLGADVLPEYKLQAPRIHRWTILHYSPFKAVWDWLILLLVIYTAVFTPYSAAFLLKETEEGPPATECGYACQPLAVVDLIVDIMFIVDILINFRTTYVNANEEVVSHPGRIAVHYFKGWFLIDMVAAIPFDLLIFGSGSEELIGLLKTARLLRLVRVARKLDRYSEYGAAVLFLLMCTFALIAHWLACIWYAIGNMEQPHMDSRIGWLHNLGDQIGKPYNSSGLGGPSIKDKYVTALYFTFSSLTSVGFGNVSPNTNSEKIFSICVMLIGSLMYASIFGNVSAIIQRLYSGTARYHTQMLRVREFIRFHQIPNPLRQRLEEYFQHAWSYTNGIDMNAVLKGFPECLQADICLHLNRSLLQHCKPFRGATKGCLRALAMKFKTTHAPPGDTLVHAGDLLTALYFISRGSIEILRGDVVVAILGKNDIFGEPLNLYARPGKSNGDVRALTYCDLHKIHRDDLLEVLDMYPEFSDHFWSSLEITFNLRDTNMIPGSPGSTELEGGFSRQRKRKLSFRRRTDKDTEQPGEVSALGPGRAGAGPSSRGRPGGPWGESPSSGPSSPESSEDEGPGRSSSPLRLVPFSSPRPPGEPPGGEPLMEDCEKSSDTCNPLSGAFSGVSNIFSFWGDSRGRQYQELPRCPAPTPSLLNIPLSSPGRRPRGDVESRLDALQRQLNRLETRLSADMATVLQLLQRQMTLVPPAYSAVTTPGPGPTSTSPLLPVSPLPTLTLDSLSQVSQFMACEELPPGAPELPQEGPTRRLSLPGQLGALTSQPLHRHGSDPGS

Sequence of wild-type human cardiac sodium channel, hNav1.5 (Q14524 whole entry): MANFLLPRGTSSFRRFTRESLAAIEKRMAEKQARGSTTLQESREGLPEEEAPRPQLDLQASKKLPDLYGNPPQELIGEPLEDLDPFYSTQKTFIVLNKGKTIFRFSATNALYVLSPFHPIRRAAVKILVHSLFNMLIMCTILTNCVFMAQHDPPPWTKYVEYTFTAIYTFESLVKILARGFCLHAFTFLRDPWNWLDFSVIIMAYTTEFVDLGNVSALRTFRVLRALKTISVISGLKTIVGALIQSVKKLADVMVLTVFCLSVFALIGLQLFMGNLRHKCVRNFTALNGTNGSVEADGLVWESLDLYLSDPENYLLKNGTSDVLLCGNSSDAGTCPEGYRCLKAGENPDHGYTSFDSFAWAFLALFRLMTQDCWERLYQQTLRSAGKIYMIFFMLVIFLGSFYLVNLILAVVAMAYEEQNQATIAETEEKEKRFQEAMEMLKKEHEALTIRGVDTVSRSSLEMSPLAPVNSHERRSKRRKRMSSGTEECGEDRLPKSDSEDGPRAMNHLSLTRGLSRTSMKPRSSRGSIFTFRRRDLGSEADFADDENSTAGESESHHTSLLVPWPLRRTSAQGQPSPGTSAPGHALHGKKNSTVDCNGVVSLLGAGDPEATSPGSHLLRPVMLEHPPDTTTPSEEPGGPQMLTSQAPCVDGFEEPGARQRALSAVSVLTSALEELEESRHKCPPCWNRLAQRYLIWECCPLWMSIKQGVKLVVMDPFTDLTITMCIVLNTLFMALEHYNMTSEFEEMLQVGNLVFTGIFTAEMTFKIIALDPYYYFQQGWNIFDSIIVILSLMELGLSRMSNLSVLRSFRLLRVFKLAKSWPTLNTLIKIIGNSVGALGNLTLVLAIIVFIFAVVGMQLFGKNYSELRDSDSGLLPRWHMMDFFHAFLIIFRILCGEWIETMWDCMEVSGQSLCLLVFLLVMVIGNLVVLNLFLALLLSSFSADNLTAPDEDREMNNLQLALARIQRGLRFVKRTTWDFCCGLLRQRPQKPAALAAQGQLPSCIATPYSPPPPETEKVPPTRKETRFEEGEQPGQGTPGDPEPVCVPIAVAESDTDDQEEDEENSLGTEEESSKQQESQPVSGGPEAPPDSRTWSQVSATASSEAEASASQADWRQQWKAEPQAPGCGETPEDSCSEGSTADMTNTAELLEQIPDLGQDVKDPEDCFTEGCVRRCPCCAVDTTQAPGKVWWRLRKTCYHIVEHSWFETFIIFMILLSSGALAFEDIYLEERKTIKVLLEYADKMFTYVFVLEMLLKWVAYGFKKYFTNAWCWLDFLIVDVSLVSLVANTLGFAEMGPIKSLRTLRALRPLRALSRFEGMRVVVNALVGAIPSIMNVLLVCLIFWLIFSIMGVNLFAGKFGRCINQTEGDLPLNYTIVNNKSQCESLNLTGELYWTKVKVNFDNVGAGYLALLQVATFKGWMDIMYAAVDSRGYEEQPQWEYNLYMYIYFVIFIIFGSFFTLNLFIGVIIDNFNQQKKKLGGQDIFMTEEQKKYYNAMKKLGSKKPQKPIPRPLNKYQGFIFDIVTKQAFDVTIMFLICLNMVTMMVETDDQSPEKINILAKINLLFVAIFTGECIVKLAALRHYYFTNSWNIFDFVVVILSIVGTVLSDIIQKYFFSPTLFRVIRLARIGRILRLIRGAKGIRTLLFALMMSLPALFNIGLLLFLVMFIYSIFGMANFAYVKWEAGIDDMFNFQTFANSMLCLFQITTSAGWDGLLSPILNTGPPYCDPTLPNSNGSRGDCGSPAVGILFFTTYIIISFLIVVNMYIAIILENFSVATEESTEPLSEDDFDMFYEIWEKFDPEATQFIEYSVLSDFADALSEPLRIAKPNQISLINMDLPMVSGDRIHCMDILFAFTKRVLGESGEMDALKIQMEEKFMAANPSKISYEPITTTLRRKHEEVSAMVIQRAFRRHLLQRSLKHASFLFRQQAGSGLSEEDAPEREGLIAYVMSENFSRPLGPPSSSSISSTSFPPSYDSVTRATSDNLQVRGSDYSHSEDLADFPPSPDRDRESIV

Compound | inhibition at 10 µM [1] [%] | hERG Patch Clamp hERG % blk ([2]; 1 μM) [%] | hERG Patch Clamp hERG % blk ([2]; 10 μM) [%] | Late INa % blk [1] [%]
CC1=C(C(=O)OCc2ccccc2)[C@@H](c2ccccc2-c2ccc(Cl)s2)n2nnnc2N1 [PT-237, (R)-benzyl 7-(2-(5-chlorothiophen-2-yl)phenyl)-5-methyl-4,7-dihydrotetrazolo[1,5-a]pyrimidine-6-carboxylate] | 61.5 | 11.5 | 22.5 | –
CC1=C(C(=O)OCc2ccccc2)C(c2ccccc2-c2ccc(C(=O)O)cc2)C2=C(CCCC2=O)N1 (stereo not drawn) [PT-249, 2′-(3-(benzyloxycarbonyl)-2-methyl-5-oxo-1,4,5,6,7,8-hexahydroquinolin-4-yl)biphenyl-4-carboxylic acid] | 20 | 11.5 | 15.5 | –
CC1=C(c2nnc(CCc3ccccc3)o2)C(c2cccc3ccccc23)n2nnnc2N1 (stereo not drawn) [PT-252, 2-(5-methyl-7-(naphthalen-1-yl)-4,7-dihydrotetrazolo[1,5-a]pyrimidin-6-yl)-5-phenethyl-1,3,4-oxadiazole] | 70 | 10.5 | 78.0 | –
CC1=C(C(=O)OCc2ccccc2)C(c2ccccc2-c2ccc(C(=O)O)cc2)n2nnnc2N1 (stereo not drawn) [PT-254, 2′-(6-(benzyloxycarbonyl)-5-methyl-4,7-dihydrotetrazolo[1,5-a]pyrimidin-7-yl)biphenyl-4-carboxylic acid] | 10.7 | 15.0 | 20.0 | –
CC1=C(C(=O)OCc2ccc(Cn3cccn3)cc2)C(c2cccc3ccccc23)n2nnnc2N1 (stereo not drawn) [PT-279, 4-((1H-pyrazol-1-yl)methyl)benzyl 5-methyl-7-(naphthalen-1-yl)-4,7-dihydrotetrazolo[1,5-a]pyrimidine-6-carboxylate] | 61.2 | 12.5 | 45.0 | –
CC1=C(C(=O)OCc2ccc(Cn3cccn3)cc2)C(c2cccs2)n2nnnc2N1 (stereo not drawn) [PT-280, 4-((1H-pyrazol-1-yl)methyl)benzyl 5-methyl-7-(thiophen-2-yl)-4,7-dihydrotetrazolo[1,5-a]pyrimidine-6-carboxylate] | 45.9 | 11.5 | 48.0 | –
COc1cc(Cl)ccc1COC(=O)C1=C(C)NC2=C(C(=O)CCC2)C1c1c(Cl)cccc1Cl (stereo not drawn) [PT-303, 4-chloro-2-methoxybenzyl 4-(2,6-dichlorophenyl)-2-methyl-5-oxo-1,4,5,6,7,8-hexahydroquinoline-3-carboxylate] | 59.9 | 12.0 | 30.5 | –
CC1=C(C(=O)OCc2ccccc2)C(c2ccccc2N2CCCCC2)n2nnnc2N1 (stereo not drawn) [PT-342, benzyl 5-methyl-7-(2-(piperidin-1-yl)phenyl)-4,7-dihydrotetrazolo[1,5-a]pyrimidine-6-carboxylate] | 80.1 | 10.0 | 47.5 | –
CC1=C(C(=O)OCc2ccccc2)C(c2nccs2)n2nccc2N1 (stereo not drawn) [PT-363, benzyl 5-methyl-7-(thiazol-2-yl)-4,7-dihydropyrazolo[1,5-a]pyrimidine-6-carboxylate] | 40.9 | 10.0 | 19.5 | –
CC1=C(C(=O)OCc2ccccc2)C(c2nccs2)n2nnnc2N1 (stereo not drawn) [PT-364, benzyl 5-methyl-7-(thiazol-2-yl)-4,7-dihydrotetrazolo[1,5-a]pyrimidine-6-carboxylate] | 25.8 | 10.0 | 17.5 | –
CC1=C(C(=O)OCc2ccccc2)C(c2ccccc2-c2ccc(NS(C)(=O)=O)cc2)c2cn[nH]c2N1 (stereo not drawn) [PT-366, benzyl 6-methyl-4-(4′-(methylsulfonamido)biphenyl-2-yl)-4,7-dihydro-1H-pyrazolo[3,4-b]pyridine-5-carboxylate] | 87.8 | 28.0 | 92.0 | –
CCS(=O)(=O)N1CCN(c2cccc(OC)c2C2C(C(=O)OCc3ccccc3)=C(C)Nc3nnnn32)CC1 (stereo not drawn) [PT-378, benzyl 7-(2-(4-(ethylsulfonyl)piperazin-1-yl)-6-methoxyphenyl)-5-methyl-4,7-dihydrotetrazolo[1,5-a]pyrimidine-6-carboxylate] | 42 | 10.0 | 41.5 | –
CC1=C(C(=O)OCc2ccccc2)C(c2c(Br)sc3ccccc23)n2nnnc2N1 (stereo not drawn) [PT-386, benzyl 7-(2-bromobenzo[b]thiophen-3-yl)-5-methyl-4,7-dihydrotetrazolo[1,5-a]pyrimidine-6-carboxylate] | 79.2 | 10.0 | 16.5 | –
CC1=C(C(=O)OCc2ccccc2)C(c2occc2-c2ccc(F)cc2)n2nnnc2N1 (stereo not drawn) [PT-396, benzyl 7-(3-(4-fluorophenyl)furan-2-yl)-5-methyl-4,7-dihydrotetrazolo[1,5-a]pyrimidine-6-carboxylate] | 80.7 | 10.0 | 32.0 | –
CC1=C(C(=O)OCc2ccccc2)C(c2sccc2-c2ccc(F)cc2)n2nnnc2N1 (stereo not drawn) [PT-397, benzyl 7-(3-(4-fluorophenyl)thiophen-2-yl)-5-methyl-4,7-dihydrotetrazolo[1,5-a]pyrimidine-6-carboxylate] | 69.1 | 10.0 | 25.0 | –
CC1=C(C(=O)OCc2ccccc2)C(c2ccc(N(C)C)cc2[N+](=O)[O-])n2nnnc2N1 (stereo not drawn) [PT-409, benzyl 7-(4-(dimethylamino)-2-nitrophenyl)-5-methyl-4,7-dihydrotetrazolo[1,5-a]pyrimidine-6-carboxylate] | 43.1 | 27.0 | 78.5 | –
CC(=O)c1ccc(-c2ccccc2C2C(C(=O)OCc3ccccc3)=C(C)Nc3nnnn32)cc1 (stereo not drawn) [PT-415, benzyl 7-(4′-acetylbiphenyl-2-yl)-5-methyl-4,7-dihydrotetrazolo[1,5-a]pyrimidine-6-carboxylate] | 75.4 | 10.5 | 38.5 | –
CCOC(=O)C1=C(C)Nc2c(c(C)nn2C)C1c1cccc2ccccc12 (stereo not drawn) [PT-440, ethyl 1,3,6-trimethyl-4-(naphthalen-1-yl)-4,7-dihydro-1H-pyrazolo[3,4-b]pyridine-5-carboxylate] | 42.8 | 12.0 | 48.0 | –
CCOC(=O)C1=C(C)Nc2[nH]ncc2C1c1ccccc1Br (stereo not drawn) [PT-448, ethyl 4-(2-bromophenyl)-6-methyl-4,7-dihydro-1H-pyrazolo[3,4-b]pyridine-5-carboxylate] | 33.6 | 10.0 | 57.5 | –
CCOC(=O)C1=C(C)Nc2nnnn2C1c1ccccc1-n1ccnc1C.Cl (stereo not drawn) [PT-457, ethyl 5-methyl-7-(2-(2-methyl-1H-imidazol-1-yl)phenyl)-4,7-dihydrotetrazolo[1,5-a]pyrimidine-6-carboxylate hydrochloride] | 12.6 | 10.0 | 21.0 | –
CCOC(=O)C1=C(C)Nc2nnnn2C1c1ccccc1-n1ccnc1.Cl (stereo not drawn) [PT-476, ethyl 7-(2-(1H-imidazol-1-yl)phenyl)-5-methyl-4,7-dihydrotetrazolo[1,5-a]pyrimidine-6-carboxylate hydrochloride] | 2.6 | 17.5 | 23.0 | –
CCOC(=O)C1=C(C)Nc2nnnn2C1c1ccccc1-n1cccn1.Cl (stereo not drawn) [PT-477, ethyl 7-(2-(1H-pyrazol-1-yl)phenyl)-5-methyl-4,7-dihydrotetrazolo[1,5-a]pyrimidine-6-carboxylate hydrochloride] | 6.2 | 12.0 | 44.0 | –
CCOC(=O)C1=C(C)Nc2nnnn2C1c1ccccc1-c1cccc(-c2nnn[nH]2)c1 (stereo not drawn) [PT-493, ethyl 7-(3′-(1H-tetrazol-5-yl)biphenyl-2-yl)-5-methyl-4,7-dihydrotetrazolo[1,5-a]pyrimidine-6-carboxylate] | 0.5 | 10.0 | 10.0 | –
COC(=O)C1=C(C)Nc2nnnn2C1c1cccc2ccccc12 (stereo not drawn) [PT-512, methyl 5-methyl-7-(naphthalen-1-yl)-4,7-dihydrotetrazolo[1,5-a]pyrimidine-6-carboxylate] | 26.6 | 10.5 | 14.0 | –
H-furo[3,4-e]pyrazolo[3,4-b]pyridin-5(4H)-one [PT-079] | – | 57.5 | 96.5 | 49.0
